Where a name gives a salt, the structure may show the parent alone.
How the values were obtained:
rh beta tryptase = molecular target: T1, rh beta tryptase (Homo sapiens, UniProt P20231); assay: Tryptase inhibition test (cleavage of N-p-tosyl-Gly-Pro-Lys-para-nitroaniline, p-nitroaniline measured at 405 nm); type: biochemical; conditions: pH 7.4, 37° C.; for % Inhibition (10 μM) / inhibition at 10 µM: inhibition of rh beta tryptase at 10 μM test substance, substrate N-p-tosyl-Gly-Pro-Lys-para-nitroaniline 0.6 mM, 5 minutes; for IC50: concentration at which 50% of the tryptase enzyme activity is inhibited, substrate 0.6 mM
T1 construct: purchased Promega
T1 sequence (P20231 31-275): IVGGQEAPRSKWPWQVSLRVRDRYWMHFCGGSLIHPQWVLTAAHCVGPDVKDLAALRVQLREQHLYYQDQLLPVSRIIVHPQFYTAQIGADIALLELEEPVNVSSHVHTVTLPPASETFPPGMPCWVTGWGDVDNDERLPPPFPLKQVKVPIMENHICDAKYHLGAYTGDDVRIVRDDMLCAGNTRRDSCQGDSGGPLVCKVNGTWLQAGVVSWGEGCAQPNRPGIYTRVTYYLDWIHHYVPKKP
How it was run: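 Recombinant human beta tryptase (0.91 U/ml) in 100 mM Tris HCl pH 7.4 with 5 mM calcium and 100 mg/ml heparin; compounds pre-incubated 5 min, then 0.6 mM tosyl-Gly-Pro-Lys-pNA added, 5 min at 37 °C. p-Nitroaniline read at 405 nm; % inhibition at 10 μM, IC50 determined when inhibition exceeded 70%.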

`Cl.Cl.Cl.Cn1c(CCc2ccc(CN)cc2)nc2cc(C(=O)NCCNc3ccccc3)ccc21` showed a melting point greater than 220 °C.

`CCOC(=O)C(Cc1ccc(C(=N)N)cc1)N(C)C(=O)c1ccc2c(c1)nc(CCc1ccc(C(=N)N)cc1)n2C` (stereo not drawn) (as salt: formate) [Example 29, Ethyl 2-{2-[2-(4-Amidinophenyl)-ethyl]-1-methyl-benzimidazol-5-yl-carbonyl-(methylamino)}-3-(4-amidinophenyl)-propionate-formate] showed a melting point of 230 °C.

In the case of `CC(=O)NCCCCC(NC(=O)c1ccc2c(c1)nc(CCc1ccc(C(=N)N)cc1)n2C)C(=O)O` (stereo not drawn) (as salt: formate) [Example 34], the melting point is reported as 158 °C.

With `Cn1c(CCc2ccc(C(=N)N)cc2)nc2cc(C(=O)NCCC(c3ccccc3)c3ccccc3)ccc21` (as salt: hydrochloride) the melting point was 185 °C.

Compound `CN(Cc1cccnc1)C(=O)c1ccc2c(c1)nc(CCc1ccc(C(=N)N)cc1)n2C` (as salt: hydrochloride) [Example 1, 2-[2-(4-Amidinophenyl)ethyl]-1-methyl-benzimidazol-5-yl-carboxylic Acid-N-(pyridin-3-yl-methyl)-N-methyl-amide-hydrochloride] has a melting point greater than 220 °C.

For `N=C(N)c1ccc(CCc2nc3cc(C(=O)N(CCN)Cc4ccc(Cl)cc4)ccc3n2CC2CCCO2)cc1` (stereo not drawn) [Example 386, 2-[2-(4-amidinophenyl)ethyl]-1-(tetrahydrofuran-2-yl-methyl)-benzimidazol-5-yl-carboxylic acid-N-(2-aminoethyl)-N-(4-chlorbenzyl)-amide], the “% Inhibition (10 μM)” value (rh beta tryptase) was 55%.

For `N=C(N)c1ccc(CCc2nc3cc(C(=O)N(CCN)Cc4ccc(Cl)cc4)ccc3n2Cc2cccs2)cc1` [Example 387, 2-[2-(4-amidinophenyl)ethyl]-1-(2-thiophenyl-methyl)-benzimidazol-5-yl-carboxylic acid-N-(2-aminoethyl)-N-(4-chlorbenzyl)-amide], the “% Inhibition (10 μM)” value (rh beta tryptase) was 55%.

For `CCOCCCn1c(CCc2ccc(C(=N)N)cc2)nc2cc(C(=O)N(CCN)Cc3cccc(C(F)(F)F)c3)ccc21` [Example 390, 2-[2-(4-amidinophenyl)ethyl]-1-(3-ethoxypropyl)-benzimidazol-5-yl-carboxylic acid-N-(2-aminoethyl)-N-(3-trifluoromethylbenzyl)-amide], the IC50 (rh beta tryptase) was 402 nM and the inhibition at 10 µM (rh beta tryptase) was 60%.

For `N=C(N)c1ccc(CCc2nc3cc(C(=O)N(CCN)Cc4cccc(C(F)(F)F)c4)ccc3n2CC2CC2)cc1` [Example 394, 2-[2-(4-amidinophenyl)ethyl]-1-cyclopropylmethyl-benzimidazol-5-yl-carboxyiic acid-N-(2-aminoethyl)-N-(3-trifluoromethylbenzyl)-amide], the “% Inhibition (10 μM)” value (rh beta tryptase) was 52%.

In the case of `Cc1ccccc1N1CCN(CCCn2c(CCc3ccc(C(=N)N)cc3)nc3cc(C(=O)N(CCN)Cc4cccc(C(F)(F)F)c4)ccc32)CC1` [Example 400, 2-[2-(4-amidinophenyl)ethyl]-1-{3-[4-(2-methylphenyl)-piperazin-1-yl]-propyl}-benzimidazol-5-yl-carboxylic acid-N-(2-aminoethyl)-N-(3-trifluoromethylbenzyl)-amide], the inhibition at 10 µM (rh beta tryptase) is reported as 52%.

Compound `N=C(N)c1ccc(CCc2nc3cc(C(=O)N(CCN)Cc4cccc(C(F)(F)F)c4)ccc3n2CC2CCCO2)cc1` (stereo not drawn) [Example 402, 2-[2-(4-amidinophenyl)ethyl]-1-(tetrahydrofuran-2-yl-methyl)-benzimidazol-5-yl-carboxylic acid-N-(2-aminoethyl)-N-(3-trifluoromethylbenzyl)-amide] has an inhibition at 10 µM (rh beta tryptase) of 51%.

`CCOCCCn1c(CCc2ccc(C(=N)N)cc2)nc2cc(C(=O)N(CCN)Cc3ccccc3F)ccc21` [Example 406, 2-[2-(4-amidinophenyl)ethyl]-1-(3-ethoxypropyl)-benzimidazol-5-yl-carboxylic acid-N-(2-aminoethyl)-N-(2-fluorobenzyl)-amide] showed an IC50 (rh beta tryptase) of 392 nM and an inhibition at 10 µM (rh beta tryptase) of 54%.

In the case of `N=C(N)c1ccc(CCc2nc3cc(C(=O)N(CCN)Cc4ccccc4F)ccc3n2CC2CC2)cc1` [Example 410, 2-[2-(4-amidinophenyl)ethyl]-1-cyclopropylmethyl-benzimidazol-5-yl-carboxylic acid-N-(2-aminoethyl)-N-(2-fluorobenzyl)-amide], the IC50 (rh beta tryptase) is reported as 626 nM.

In the case of `CCOCCCn1c(CCc2ccc(C(=N)N)cc2)nc2cc(C(=O)N(CCN)Cc3ccc4ccccc4c3)ccc21` [Example 422, 2-[2-(4-amidinophenyl)ethyl]-1-(3-ethoxypropyl)-benzimidazol-5-yl-carboxyiic acid-N-(2-aminoethyl)-N-(2-naphthylmethyl)-amide], the IC50 (rh beta tryptase) is reported as 364 nM and the inhibition at 10 µM (rh beta tryptase) is reported as 58%.

Compound `CCOCCCn1c(CCc2ccc(C(=N)N)cc2)nc2cc(C(=O)N(Cc3ccc(CN)cc3)Cc3ccc(C(=O)OC)cc3)ccc21` [Example 438, 2-[2-(4-amidinophenyl)ethyl]-1-(3-ethoxypropyl)-benzimidazol-5-yl-carboxylic acid-N-[4-(amino-methyl)-benzyl]-N-[4-(methoxycarbonyl)-benzyl]-amide] has an inhibition at 10 µM (rh beta tryptase) of 59%.

`COC(=O)c1ccc(CN(Cc2ccc(CN)cc2)C(=O)c2ccc3c(c2)nc(CCc2ccc(C(=N)N)cc2)n3CCCNC(=O)Cc2ccccc2)cc1` [Example 440, 2-[2-(4-amidinophenyl)ethyl]-1-[3-(benzylcarbonylamino)-propyl]-benzimidazol-5-yl-carboxylic acid-N-[4-(amino-methyl)-benzyl]-N-[4-(methoxycarbonyl)-benzyl]-amide] gave an inhibition at 10 µM (rh beta tryptase) of 64%.

Work on `COC(=O)c1ccc(CN(Cc2ccc(CN)cc2)C(=O)c2ccc3c(c2)nc(CCc2ccc(C(=N)N)cc2)n3CC2CC2)cc1` [Example 442, 2-[2-(4-amidinophenyl)ethyl]-1-cyclopropylmethyl-benzimidazol-5-yl-carboxylic acid-N-[4-(amino-methyl)-benzyl]-N-[4-(methoxycarbonyl)-benzyl]-amide] yielded an inhibition at 10 µM (rh beta tryptase) of 59%.

Work on `COC(=O)c1ccc(CN(Cc2ccc(CN)cc2)C(=O)c2ccc3c(c2)nc(CCc2ccc(C(=N)N)cc2)n3CCc2ccccc2)cc1` [Example 443, 2-[2-(4-amidinophenyl)ethyl]-1-(2-phenylethyl)-benzimidazol-5-yl-carboxylic acid-N-[4-(amino-methyl)-benzyl]-N-[4-(methoxycarbonyl)-benzyl]-amide] yielded an inhibition at 10 µM (rh beta tryptase) of 52%.

`COC(=O)c1ccc(CN(Cc2ccc(CN)cc2)C(=O)c2ccc3c(c2)nc(CCc2ccc(C(=N)N)cc2)n3CCc2ccc(Cl)cc2)cc1` [Example 444, 2-[2-(4-amidinophenyl)ethyl]-1-[2-(4-chlorophenyl)ethyl]-benzimidazol-5-yl-carboxylic acid-N-[4-(amino-methyl)-benzyl]-N-[4-(methoxycarbonyl)-benzyl]-amide] gave an inhibition at 10 µM (rh beta tryptase) of 53%.

`COC(=O)c1ccc(CN(Cc2ccc(CN)cc2)C(=O)c2ccc3c(c2)nc(CCc2ccc(C(=N)N)cc2)n3Cc2ccc(C)cc2)cc1` [Example 445, 2-[2-(4-amidinophenyl)ethyl]-1-(4-methylbenzyl)-benzimidazol-5-yl-carboxylic acid-N-[4-(amino-methyl)-benzyl]-N-[4-(methoxycarbonyl)-benzyl]-amide] showed an inhibition at 10 µM (rh beta tryptase) of 52%.

`COC(=O)c1ccc(CN(Cc2ccc(CN)cc2)C(=O)c2ccc3c(c2)nc(CCc2ccc(C(=N)N)cc2)n3CC2CCCO2)cc1` (stereo not drawn) [Example 450, 2-[2-(4-amidinophenyl)ethyl]-1-(tetrahydrofuran-2-yl-methyl)-benzimidazol-5-yl-carboxylic acid-N-[4-(amino-methyl)-benzyl]-N-[4-(methoxycarbonyl)-benzyl]-amide] gave an inhibition at 10 µM (rh beta tryptase) of 72%.
